# Reference: US9302999B2, “Substituted triazoles as herbicides” (E. I. DU PONT DE NEMOURS AND COMPANY, priority 2012, dated 2016)
# How the values were obtained:
# [1] = system: chickweed (common chickweed, Stellaria media); experiment: Test D pre-/postemergence: chickweed; format: in vivo
# Procedure, shortened: (§1)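 Visual ratings from 0 (no effect) to 100 (complete control) were made 14–21 days after treatment, relative to controls. Applications were preemergence to seeds in silt loam, or postemergence to 2–18 cm (1–4 leaf) plants in peat-based medium. Compounds were formulated in a surfactant-containing non-phytotoxic solvent.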
# [2] = system: speedwell (bird's-eye speedwell, Veronica persica); experiment: Test D pre-/postemergence: speedwell; format: in vivo; details: Preemergence
# Procedure, shortened: as §1
# [3] = system: Waterhemp; experiment: Test C preemergence: waterhemp; format: in vivo, Amaranthus rudis; details: 125 g ai/ha, scale 0 to 100, 0 no effect, 100 complete control
# [4] = system: Waterhemp; experiment: Test C preemergence: waterhemp; format: in vivo; details: 62 g ai/ha, scale of 0 to 100, 0 is no effect, 100 is complete control
# Text: Seeds of plant species selected from blackgrass (Alopecurus myosuroides), bromegrass, downy (downy bromegrass, Bromus tectorum), foxtail, green (green foxtail, Setaria viridis), ryegrass, Italian (Italian ryegrass, Lolium multiflorum), winter wheat (Triticum aestivum), wild oat (Avena fatua), galium (catchweed bedstraw, Galium aparine), bermudagrass (Cynodon dactylon), surinam grass (Brachiaria decumbens), cocklebur (common cocklebur, Xanthium strumarium), corn (Zea mays), large crabgrass (Digitaria sanguinalis), woolly cupgrass (Eriochloa villosa), foxtail, giant (giant foxtail, Setaria faberii), goosegrass (Eleusine indica), johnsongrass (Sorghum halepense), kochia (Kochia scoparia), lambsquarters (Chenopodium album), morningglory (Ipomoea coccinea), nightshade (eastern black nightshade, Solanum ptycanthum), nutsedge, yellow (yellow nutsedge, Cyperus esculentus), pigweed (Amaranthus retroflexus), ragweed (common ragweed, Ambrosia elation), soybean (Glycine max), common (oilseed) sunflower (Helianthus annuus), Russian thistle (Salsola kali) and velvetleaf (Abutilon theophrasti) were planted into a blend of loam soil and sand and treated preemergence with test chemicals formulated in a non-phytotoxic solvent mixture which included a surfactant.
# Treated plants and controls were maintained in a greenhouse for 13 to 15 days, after which time all species were compared to controls and visually evaluated. Plant response ratings, summarized in Table C, are based on a scale of 0 to 100 where 0 is no effect and 100 is complete control. A dash (-) response means no test result.
# [5] = system: field bindweed (Convolvulus arvensis); experiment: Test F pre-/postemergence: field bindweed; format: in vivo; details: Preemergence
# Procedure, shortened: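 Seeds were sown in silt loam soil and sprayed preemergence with test chemical in a non-phytotoxic solvent mixture containing surfactant; postemergence treatments went onto plants 2 to 18 cm tall (1- to 4-leaf stage) grown in peat moss/vermiculite medium. After 14 to 21 days in a greenhouse, injury was rated visually against controls, 0 (no effect) to 100 (complete control).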
# [6] = Postemergence, 31 g ai/ha, scale 0 to 100 (0 no effect, 100 complete control)
# [7] = Postemergence, 62 g ai/ha, scale 0 to 100 (0 no effect, 100 complete control)
# [8] = Postemergence, 125 g ai/ha, scale 0 to 100, 0 no effect, 100 complete control
# [9] = Postemergence, 16 g ai/ha, scale 0 to 100
# [10] = Preemergence, 16 g ai/ha, scale 0 to 100, 0 no effect, 100 complete control
# [11] = Preemergence, 31 g ai/ha, scale 0 to 100, 0 no effect, 100 complete control
# [12] = Preemergence, 62 g ai/ha, scale 0 to 100
# [13] = Preemergence, 125 g ai/ha, scale 0 to 100
# [14] = 16 g ai/ha, scale 0 to 100, 0 no effect, 100 complete control
# [15] = 31 g ai/ha, scale 0 to 100, 0 no effect, 100 complete control
SMILES,"Plant response rating: Chickweed [1, 6]","Plant response rating: Chickweed [1, 7]","Plant response rating: Chickweed [1, 8]","Plant response rating, Chickweed [1, 9]","Plant response rating, Chickweed [1, 10]","Plant response rating, Chickweed [1, 11]","Plant response rating, Chickweed [1, 12]","Plant response rating, Chickweed [1, 13]","Plant response rating, Speedwell [2, 14]","Plant response rating, Speedwell [2, 15]","Plant response rating, Speedwell ([2]; 62 g ai/ha, scale 0 to 100)","Plant response rating, Speedwell ([2]; 125 g ai/ha, scale 0 to 100)","Plant response rating, Waterhemp [3]","Plant response rating, Waterhemp [4]","Plant response rating, Field Bindweed [5, 14]","Plant response rating, Field Bindweed [5, 15]","Plant response rating, Field Bindweed ([5]; 62 g ai/ha, scale 0 to 100)","Plant response rating, Field Bindweed ([5]; 125 g ai/ha, scale 0 to 100)","Plant response rating, Field Bindweed ([5]; 250 g ai/ha, scale 0 to 100)"
Cc1nn(-c2ccc(F)c(C(F)(F)F)c2)nc1Cc1ccnc(C(F)(F)F)c1 [Compound 156],75,90,95,60,50,100,100,100,10,100,100,100,100,100,–,–,–,–,–
CCc1nn(-c2ccc(F)cc2)nc1Cc1ccnc(C(F)(F)F)c1 [Compound 154],–,–,–,–,–,–,–,–,–,–,–,–,100,100,0,0,5,35,95
FCc1nn(-c2ccc(F)cc2)nc1Oc1ccnc(C(F)(F)F)c1 [Compound 160],–,–,–,–,–,–,–,–,–,–,–,–,100,100,–,–,–,–,–
CCc1nn(-c2ccc(C(F)(F)F)cc2)nc1Cc1ccnc(C(F)(F)F)c1 [Compound 155],70,75,100,65,35,50,100,100,100,100,100,100,100,100,–,–,85,95,100
CCOCc1nn(-c2ccc(F)cc2)nc1Oc1ccnc(C(F)(F)F)c1 [Compound 163],–,–,–,–,–,–,–,–,–,–,–,–,100,100,–,–,–,–,–
